Results: publication PMC7998589, “A Radiobrominated Tyrosine Kinase Inhibitor for EGFR with L858R/T790M Mutations in Lung Carcinoma” (Pharmaceuticals, 2021)

Columns and labels:
[1] = tested on: H1975 (L858R/T790M double mutations EGFR); assay: Cellular uptake and blocking study, H1975; format: cell-based, human
Experimental: H1975 (1 × 10^5 cells/well), H441 (1 × 10^5 cells/well), and H3255 (2 × 10^5 cells/well) NSCLC cells were cultured in 6 well plates. Cells were incubated in medium with 10% FBS and 100 IU/mL penicillin–streptomycin at 37 °C in a humidified atmosphere with 5% CO2 for 24 h. […] The cells were dissolved by a 1.0 M NaOH aqueous solution (0.5 mL × 2). The cell lysate was transferred into a test tube. The radioactivity of ^77Br was measured by an auto well gamma counter at a 100–600 keV energy range. […] The BCA protein assay kit protocol was used to determine the protein concentration.

H1975 and H441 tumors = assay: Biodistribution of double tracers in tumor-bearing mice; format: in vivo, BALB/c nu/nu mice
Experimental: Six weeks old male ddY mice and four weeks old female BALB/c nu/nu mice were purchased from Japan SLC Inc. (Hamamatsu, Japan). Tumor-bearing mice were prepared by subcutaneous injection of cells suspended in 100 μL medium to the female BALB/c nu/nu mice. H1975 cells (5 × 10^6 cells) were implanted in the right shoulder, and H441 cells (3 × 10^6 cells) were implanted in the left shoulder. The tumor reached palpable size after post-inoculation 12 and 9 days for H1975 and H441, respectively.
(§1) One month later, ^125I activity was determined.

[2] = Biodistribution of double tracers in normal mice; format: in vivo; conditions: ddY mice
Experimental: as §1

[3] = set-up: method as in PMID 32599930; conditions: ref [9]; cited from earlier work
H441 (wild-type EGFR) = assay: WST-8 cytotoxicity assay, H441; format: cell-based; conditions: Homo sapiens, NCI-H441
Source text: (§2) The data were statistically analyzed and presented as mean ± standard deviation (SD).

H3255 (EGFR L858R) = assay: WST-8 cytotoxicity assay, H3255; format: cell-based; conditions: Homo sapiens, NCI-H3255
Source text: as §2

H1975 (EGFR L858R/T790M) = assay: WST-8 cytotoxicity assay, H1975; format: cell-based; conditions: Homo sapiens, NCI-H1975
Source text: as §2

In the case of `C=CC(=O)Nc1cc([125I])cc(Nc2nc(Nc3ccc(N4CCN(C(C)=O)CC4)cc3OC)ncc2C(F)(F)F)c1` [[^125I]ICO1686], the “accumulation in H1975 versus H3255 and H441” value ([1]; 4 h of incubation) is reported as “significantly higher”, the “reduction of uptake upon pretreatment with CO-1686” value ([1]; H1975) is reported as ~60% and the “accumulation of radioactivity with pretreatment with excess CO-1686” value ([1]; H1975, 4 h, CO-1686 100 µM blocking) is reported as 67.7 % dose/mg protein. For the same compound, the “accumulation of radioactivity (cell uptake)” value ([1]; H1975, 4 h incubation) was 151.3 % dose/mg protein, the “effect of gefitinib on uptake” value ([1]; H1975, gefitinib 100 µM blocking) was “not significantly reduced” and the “Biodistribution, Blood” value (H1975 and H441 tumors; 1 h after i.v. injection) was 0.50 % ID/g. The “Biodistribution, Bone” value (H1975 and H441 tumors; 1 h after i.v. injection) was 0.42 % ID/g, the “Biodistribution, Brain” value (H1975 and H441 tumors; 1 h after i.v. injection) was 0.04 % ID/g and the “Biodistribution, H441 tumor” value (H1975 and H441 tumors; 1 h after i.v. injection) was 0.44 % ID/g. The “Biodistribution, H1975 tumor” value (H1975 and H441 tumors; 1 h after i.v. injection) was 0.68 % ID/g, the “Biodistribution, Heart” value (H1975 and H441 tumors; 1 h after i.v. injection) was 0.61 % ID/g and the “Biodistribution, Kidney” value (H1975 and H441 tumors; 1 h after i.v. injection) was 2.64 % ID/g. The “Biodistribution, Large intestine” value (H1975 and H441 tumors; 1 h after i.v. injection) was 27.65 % ID/g, the “Biodistribution, Liver” value (H1975 and H441 tumors; 1 h after i.v. injection) was 30.32 % ID/g and the “Biodistribution, Lung” value (H1975 and H441 tumors; 1 h after i.v. injection) was 1.62 % ID/g. For the same compound, the “Biodistribution, Muscle” value (H1975 and H441 tumors; 1 h after i.v. injection) was 0.36 % ID/g, the “Biodistribution, Pancreas” value (H1975 and H441 tumors; 1 h after i.v. injection) was 2.71 % ID/g and the “Biodistribution, Small intestine” value (H1975 and H441 tumors; 1 h after i.v. injection) was 86.29 % ID/g. For the same compound, the “Biodistribution, Spleen” value (H1975 and H441 tumors; 1 h after i.v. injection) was 1.80 % ID/g, the “Biodistribution, Stomach” value (H1975 and H441 tumors; 1 h after i.v. injection) was 1.49 % ID/organ and the “Biodistribution, Blood” value (H1975 and H441 tumors; 6 h after i.v. injection) was 0.17 % ID/g. The “Biodistribution, Bone” value (H1975 and H441 tumors; 6 h after i.v. injection) was 0.22 % ID/g, the “Biodistribution, Brain” value (H1975 and H441 tumors; 6 h after i.v. injection) was 0.02 % ID/g and the “Biodistribution, H441 tumor” value (H1975 and H441 tumors; 6 h after i.v. injection) was 0.19 % ID/g. For the same compound, the “Biodistribution, H1975 tumor” value (H1975 and H441 tumors; 6 h after i.v. injection) was 0.10 % ID/g, the “Biodistribution, Heart” value (H1975 and H441 tumors; 6 h after i.v. injection) was 0.53 % ID/g and the “Biodistribution, Kidney” value (H1975 and H441 tumors; 6 h after i.v. injection) was 1.05 % ID/g. The “Biodistribution, Large intestine” value (H1975 and H441 tumors; 6 h after i.v. injection) was 95.22 % ID/g, the “Biodistribution, Liver” value (H1975 and H441 tumors; 6 h after i.v. injection) was 10.16 % ID/g and the “Biodistribution, Lung” value (H1975 and H441 tumors; 6 h after i.v. injection) was 0.37 % ID/g. For the same compound, the “Biodistribution, Muscle” value (H1975 and H441 tumors; 6 h after i.v. injection) was 0.10 % ID/g, the “Biodistribution, Pancreas” value (H1975 and H441 tumors; 6 h after i.v. injection) was 0.36 % ID/g and the “Biodistribution, Small intestine” value (H1975 and H441 tumors; 6 h after i.v. injection) was 11.72 % ID/g. For the same compound, the “Biodistribution, Spleen” value (H1975 and H441 tumors; 6 h after i.v. injection) was 0.25 % ID/g, the “Biodistribution, Stomach” value (H1975 and H441 tumors; 6 h after i.v. injection) was 1.17 % ID/organ and the “Biodistribution, Blood” value ([2]; 10 min after i.v. injection) was 1.41 % ID/g. For the same compound, the “Biodistribution, Bone” value ([2]; 10 min after i.v. injection) was 0.74 % ID/g, the “Biodistribution, Brain” value ([2]; 10 min after i.v. injection) was 0.08 % ID/g and the “Biodistribution, Heart” value ([2]; 10 min after i.v. injection) was 2.24 % ID/g. For the same compound, the “Biodistribution, Kidney” value ([2]; 10 min after i.v. injection) was 9.66 % ID/g, the “Biodistribution, Large intestine” value ([2]; 10 min after i.v. injection) was 0.94 % ID/g and the “Biodistribution, Liver” value ([2]; 10 min after i.v. injection) was 19.21 % ID/g. For the same compound, the “Biodistribution, Lung” value ([2]; 10 min after i.v. injection) was 3.61 % ID/g, the “Biodistribution, Muscle” value ([2]; 10 min after i.v. injection) was 1.20 % ID/g and the “Biodistribution, Pancreas” value ([2]; 10 min after i.v. injection) was 2.03 % ID/g. For the same compound, the “Biodistribution, Small intestine” value ([2]; 10 min after i.v. injection) was 36.32 % ID/g, the “Biodistribution, Spleen” value ([2]; 10 min after i.v. injection) was 2.73 % ID/g and the “Biodistribution, Stomach” value ([2]; 10 min after i.v. injection) was 2.60 % ID/organ. For the same compound, the “Biodistribution, Blood” value ([2]; 1 h after i.v. injection) was 0.17 % ID/g, the “Biodistribution, Bone” value ([2]; 1 h after i.v. injection) was 0.16 % ID/g and the “Biodistribution, Brain” value ([2]; 1 h after i.v. injection) was 0.01 % ID/g. The “Biodistribution, Heart” value ([2]; 1 h after i.v. injection) was 0.30 % ID/g, the “Biodistribution, Kidney” value ([2]; 1 h after i.v. injection) was 2.40 % ID/g and the “Biodistribution, Large intestine” value ([2]; 1 h after i.v. injection) was 1.65 % ID/g. For the same compound, the “Biodistribution, Liver” value ([2]; 1 h after i.v. injection) was 7.40 % ID/g, the “Biodistribution, Lung” value ([2]; 1 h after i.v. injection) was 0.59 % ID/g and the “Biodistribution, Muscle” value ([2]; 1 h after i.v. injection) was 0.23 % ID/g. For the same compound, the “Biodistribution, Pancreas” value ([2]; 1 h after i.v. injection) was 0.86 % ID/g, the “Biodistribution, Small intestine” value ([2]; 1 h after i.v. injection) was 40.99 % ID/g and the “Biodistribution, Spleen” value ([2]; 1 h after i.v. injection) was 0.55 % ID/g. The “Biodistribution, Stomach” value ([2]; 1 h after i.v. injection) was 1.64 % ID/organ, the “Biodistribution, Blood” value ([2]; 4 h after i.v. injection) was 0.06 % ID/g and the “Biodistribution, Bone” value ([2]; 4 h after i.v. injection) was 0.05 % ID/g. For the same compound, the “Biodistribution, Brain” value ([2]; 4 h after i.v. injection) was 0.01 % ID/g, the “Biodistribution, Heart” value ([2]; 4 h after i.v. injection) was 0.08 % ID/g and the “Biodistribution, Kidney” value ([2]; 4 h after i.v. injection) was 0.75 % ID/g. The “Biodistribution, Large intestine” value ([2]; 4 h after i.v. injection) was 81.54 % ID/g, the “Biodistribution, Liver” value ([2]; 4 h after i.v. injection) was 6.45 % ID/g and the “Biodistribution, Lung” value ([2]; 4 h after i.v. injection) was 0.16 % ID/g. For the same compound, the “Biodistribution, Muscle” value ([2]; 4 h after i.v. injection) was 0.04 % ID/g, the “Biodistribution, Pancreas” value ([2]; 4 h after i.v. injection) was 0.12 % ID/g and the “Biodistribution, Small intestine” value ([2]; 4 h after i.v. injection) was 6.08 % ID/g. The “Biodistribution, Spleen” value ([2]; 4 h after i.v. injection) was 0.20 % ID/g, the “Biodistribution, Stomach” value ([2]; 4 h after i.v. injection) was 0.76 % ID/organ and the “Biodistribution, Blood” value ([2]; 24 h after i.v. injection) was 0.13 % ID/g. The “Biodistribution, Bone” value ([2]; 24 h after i.v. injection) was 0.09 % ID/g, the “Biodistribution, Feces” value ([2]; 24 h after i.v. injection) was 71.54 % ID/organ and the “Biodistribution, Heart” value ([2]; 24 h after i.v. injection) was 0.20 % ID/g. The “Biodistribution, Kidney” value ([2]; 24 h after i.v. injection) was 0.54 % ID/g, the “Biodistribution, Large intestine” value ([2]; 24 h after i.v. injection) was 0.52 % ID/g and the “Biodistribution, Liver” value ([2]; 24 h after i.v. injection) was 1.40 % ID/g. For the same compound, the “Biodistribution, Lung” value ([2]; 24 h after i.v. injection) was 0.14 % ID/g, the “Biodistribution, Muscle” value ([2]; 24 h after i.v. injection) was 0.04 % ID/g and the “Biodistribution, Pancreas” value ([2]; 24 h after i.v. injection) was 0.05 % ID/g. The “Biodistribution, Small intestine” value ([2]; 24 h after i.v. injection) was 0.30 % ID/g, the “Biodistribution, Spleen” value ([2]; 24 h after i.v. injection) was 0.13 % ID/g and the “Biodistribution, Stomach” value ([2]; 24 h after i.v. injection) was 0.05 % ID/organ. The “Biodistribution, Urine” value ([2]; 24 h after i.v. injection) was 1.63 % ID/organ, the eliminated in feces ([2]; 24 h postinjection) was “up to 71%” and the “log P” value [3] was 1.84 ± 0.01.

With `C=CC(=O)Nc1cc(Br)cc(Nc2nc(Nc3ccc(N4CCN(C(C)=O)CC4)cc3OC)ncc2C(F)(F)F)c1` [compound 9, N-(3-{[2-({4-[4-acetylpiperazin-1-yl]-2-methoxyphenyl}amino)-5-(trifluoromethyl)pyrimidin-4-yl]amino}-5-bromophenyl)acrylamide] the IC50 (H441 (wild-type EGFR)) was 0.64 ± 0.04 µM, the IC50 (H3255 (EGFR L858R)) was 0.2 ± 0.01 µM and the IC50 (H1975 (EGFR L858R/T790M)) was 0.18 ± 0.06 µM.
